From patent publication US5420128A, “Pyrimidine derivatives, method of manufacturing the same, and androgen inhibitor” (Otsuka Pharmaceutical Co., Ltd., priority 1990, dated 1995)

molecular target: T1, rat prostate androgen receptor (Rattus norvegicus, UniProt P15207); test: inhibitory activity on binding of ^3 H-mibolerone on rat prostate androgen receptor; conditions: ^3 H-mibolerone 1 nM, triamcinolone acetonide 5 μM, rat ventral prostate cytosol, 20 hours at 0° C.; read-out: Inhibitory activity on mibolerone specific binding [IC50 (M)]
T1 construct: the supernatant was obtained as cytoplasm fraction; from tissue; host or cells: cytosol (105000×g supernatant) of rat ventral prostate, 24 hours after castration
T1 sequence (P15207 1-902): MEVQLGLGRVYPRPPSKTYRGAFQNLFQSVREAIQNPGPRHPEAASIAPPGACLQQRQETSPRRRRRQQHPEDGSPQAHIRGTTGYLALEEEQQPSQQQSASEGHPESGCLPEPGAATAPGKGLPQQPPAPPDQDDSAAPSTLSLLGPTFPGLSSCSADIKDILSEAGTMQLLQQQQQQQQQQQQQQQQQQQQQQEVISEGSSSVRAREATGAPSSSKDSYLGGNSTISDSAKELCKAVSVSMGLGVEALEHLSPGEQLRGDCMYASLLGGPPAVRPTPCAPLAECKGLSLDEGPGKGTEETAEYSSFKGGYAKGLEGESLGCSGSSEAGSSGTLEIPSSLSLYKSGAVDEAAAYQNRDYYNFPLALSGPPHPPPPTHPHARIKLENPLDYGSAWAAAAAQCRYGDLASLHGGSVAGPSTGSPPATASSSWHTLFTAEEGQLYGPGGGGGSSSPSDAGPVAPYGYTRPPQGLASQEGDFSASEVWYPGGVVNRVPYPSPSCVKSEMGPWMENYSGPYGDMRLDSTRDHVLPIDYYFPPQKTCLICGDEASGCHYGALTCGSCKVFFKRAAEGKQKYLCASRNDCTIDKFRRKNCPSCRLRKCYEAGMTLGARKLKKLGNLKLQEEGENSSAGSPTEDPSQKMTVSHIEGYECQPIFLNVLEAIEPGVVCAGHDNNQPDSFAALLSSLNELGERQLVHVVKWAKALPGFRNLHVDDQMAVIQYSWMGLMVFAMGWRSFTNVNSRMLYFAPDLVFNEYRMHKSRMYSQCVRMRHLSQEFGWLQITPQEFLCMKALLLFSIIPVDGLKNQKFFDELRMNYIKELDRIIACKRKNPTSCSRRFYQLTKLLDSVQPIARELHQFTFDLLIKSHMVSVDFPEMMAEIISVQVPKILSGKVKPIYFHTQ
Protocol: B. Measurement of inhibitory activity on binding of ^3 H-mibolerone on rat prostate androgen receptor
The rat was sacrificed 24 hours after castration, and the ventral lobe of prostate was removed, and was gently homogenized, in ice-cooling water bath, at first by using Polytron and then using Potter type homogenizer, in three-fold amount of buffer solution A (1.5 mM EDTA, 2 mM dithiothreitol, 10 mM molybdate sodium, 10 % by volume of glycerol, 10 mM NaF, 25 mM phosphate sodium, pH 7.2). The obtained homogenate was filtrated through double gauze, and centrifuged at 105000×g for 60 minutes at 4° C., and the supernatant was obtained as cytoplasm fraction.
(2) Measurement of specific binding of ^3 H-mibolerone on prostate cytoplasm androgen receptor
To the cytoplasm fraction obtained in (1), ^3 H-mibolerone (87.0 Ci/mmol) was added, so that a final concentration is adjusted to 1 nM, and at the same time, in order to inhibit binding of ^3 H-mibolerone to progestin receptor, triamsinolone acetonide was added to a final concentration of 5 μM, and the final volume was adjusted to 0.4 ml with buffer solution A, and the reaction mixture was incubated for 20 hours at 0° C. After incubation, 0.5 ml of 60% hydroxylapatite slurry (washed and equilibrate with a buffer solution B: 10 mM NaH2 P04, 20 mM tris-hydrochloric acid, pH 7.2) was added, and incubated for 10 minutes at 0° C., the solution was transferred onto a glass fiber filter, and washed five times with 5 ml portions of buffer solution B containing 0.1% (weight/volume) of Triton X-100, to remove free ^3 H-mibolerone. This glass fiber was transferred into vial, and 10 ml of aquasol-2 was added, and the radioactivity was measured, and the total binding amount of ^3 H-mibolerone on prostate cytoplasm androgen receptor was determined.
The nonspecific binding amount was determined similarly by adding an unlabeled 5α-DHT in the reaction solution to a final concentration of 1 μM. The difference between the total binding amount and nonspecific binding amount was determined as the specific binding amount on the androgen receptor.
(3) Inhibitory activity of sample compounds on ^3 H-mibolerone specific binding
The compounds obtained in the experiments were added simultaneously with ^3 H-mibolerone at different concentrations to incubate same as in (2), and the specific binding amount of 3H-mibolerone on androgen receptor was determined. Comparing this value with the value obtained in (2), the IC50 value of inhibitory activity of the compounds on ^3 H-mibolerone specific binding was determined.

| SMILES | IC50 |
| --- | --- |
| Oc1cccc(Cc2cnc3c(-c4ccc(Sc5ccccc5)cc4)cnn3c2O)c1 [Example 62, 7-Hydroxy-6-(3-hydroxyphenylmethyl)-3-(4-phenylthiophenyl)pyrazolo[1,5-a]pyrimidine] | 1.2e-07 M |
| Oc1c(-c2ccccc2F)cnc2c(-c3ccc(Sc4ccccc4)cc3)cnn12 [Example 57, 7-Hydroxy-6-(2-fluorophenyl)-3-(4-phenylthiophenyl)pyrazolo[1,5-a]pyrimidine] | 1.45e-07 M |
| Oc1c(-c2cccc(F)c2)cnc2c(-c3ccc(Sc4ccccc4)cc3)cnn12 [Example 56, 7-Hydroxy-6-(3-fluorophepyl)-3-(4-phenylthiophenyl)pyrazolo[1,5-a]pyrimidine] | 1.2e-07 M |
| Oc1c2c(nc3c(-c4ccc(Sc5ccccc5)cc4)cnn13)CCC2 [Example 11, 5H-6,7-Dihydro-8-hydroxy-3-(4-phenylthiophenyl)cyclopenta[d]pyrazolo[1,5-a]pyrimidine] | 4.2e-07 M |
| Oc1c(-c2ccccc2)cnc2c(-c3ccc(Sc4ccccc4)cc3)cnn12 [Example 23, 7-Hydroxy-6-phenyl-3-(4-phenylthiophenyl)pyrazolo[1,5-a]pyrimidine] | 5.8e-08 M |
| Oc1cc(C2CC2)nc2c(-c3ccc(Sc4ccccc4)cc3)cnn12 [Example 8, 7-Hydroxy-5-cyclopropyl-3-(4-phenylthiophenyl)pyrazolo[1,5-a]pyrimidine] | 1.7e-06 M |
| COCc1nn2c(O)ccnc2c1-c1ccc(Sc2ccccc2)cc1 [Example 19, 7-Hydroxy-2-methoxymethyl-3-(4-phenylthiophenyl)pyrazolo[1,5-a]pyrimidine] | > 5e-06 M |
| COc1ccc(-c2cnc3c(-c4ccc(Sc5ccccc5)cc4)cnn3c2O)cc1Br [Example 73, 6-(3-bromo-4-methoxyphenyl)-7-hydroxy-3-(4-phenylthiophenyl)pyrazolo[1,5-a]pyrimidine] | > 5e-06 M |
| Oc1c(CCc2ccccc2)cnc2c(-c3ccc(Sc4ccccc4)cc3)cnn12 [Example 28, 7-Hydroxy-6-phenethyl-3-(4-phenylthiophenyl)pyrazolo[1,5-a]pyrimidine] | > 5e-06 M |
| Oc1cc(C(F)(F)F)nc2c(-c3ccc(Sc4ccccc4)cc3)cnn12 [Example 13, 7-Hydroxy-5-trifluoromethyl-3-(4-phenylthiophenyl)pyrazolo[1,5-a]pyrimidine] | 2e-06 M |
| Cc1ccc(-c2cnc3c(-c4ccc(Sc5ccccc5)cc4)cnn3c2O)cc1 [Example 51, 7-Hydroxy-6-(4-methylphenyl)-3-(4-phenylthiophenyl)pyrazolo[1,5-a]pyrimidin] | 3.4e-07 M |

Results, then the compound that gave them:

| IC50 | SMILES |
| --- | --- |
| 1.3e-06 M | O=C(c1ccccc1)c1cnc2c(-c3ccc(Sc4ccccc4)cc3)cnn2c1O [Example 68, 7-Hydroxy-6-benzoyl-3-(4-phenylthiophenyl)pyrazolo[1,5-a]pyrimidine] |
| 5.2e-08 M | Oc1c(F)cnc2c(-c3ccc(Sc4ccccc4)cc3)cnn12 [Example 22] |
| 1.3e-07 M | Oc1c(Cl)cnc2c(-c3ccc(Sc4ccccc4)cc3)cnn12 [Example 36, 7-Hydroxy-6-chloro-3-(4-phenylthiophenyl)pyrazolo[1,5-a]pyrimidine] |
| 4e-07 M | O=C(Nc1cc(Cl)c(Cl)c(Cl)c1)c1cnc2c(-c3ccc(Sc4ccccc4)cc3)cnn2c1O [Example 45, 7-Hydroxy-3-(4-phenylthiophenyl)-6-(N-3,4,5-trichlorophenyl)carbamoylpyrazolo[1,5-a]pyrimidine] |
| 5e-08 M | N#Cc1cnc2c(-c3ccc(Sc4ccccc4)cc3)cnn2c1O [Example 47, 7-Hydroxy-6-cyano-3,(4-phenylthiophenyl)pyrazolo[1,5-a]pyrimidine] |
| 2.2e-08 M | O=C(O)Cc1cnc2c(-c3ccc(Sc4ccccc4)cc3)cnn2c1O [Example 40, 7-Hydroxy-6-carboxymethyl-3-(4-phenylthiophenyl)pyrazolo[1,5-a]pyrimidine] |
| 4.6e-07 M | Oc1c(C(O)c2ccccc2)cnc2c(-c3ccc(Sc4ccccc4)cc3)cnn12 (stereo not drawn) [Example 71, 7-Hydroxy-6-(α-hydroxybenzyl)-3-(4-phenylthiophenyl)pyrazolo[1,5-a]pyrimidine] |
| 3e-06 M | O=C(Nc1ccccc1)c1cnc2c(-c3ccc(Sc4ccccc4)cc3)cnn2c1O [Example 42, 7-Hydroxy-6-(N-phenylcarbamoyl)-3-(4-phenylthiophenyl)pyrazolo[1,5-a]pyrimidine] |
| 1.6e-07 M | Oc1ccc(-c2cnc3c(-c4ccc(Sc5ccccc5)cc4)cnn3c2O)cc1 [Example 66, 7-Hydroxy-6-(4-hydroxyphenyl)-3-(4-phenylthiophenyl)pyrazolo[1,5-a]pyrimidine] |

molecular target: T1, rat prostate androgen receptor; test: inhibitory activity on binding of ^3 H-5α-DHT on rat prostate androgen receptor; conditions: ^3 H-5α-DHT 1 nM, rat ventral prostate cytosol, about 20 hours at 0° C.; read-out: Inhibitory activity on 5α-DHT specific binding [IC50 (M)]
Protocol: The compounds obtained in Examples were evaluated in the following pharmacological studies A and B. The pharmacological study A was conducted in conformity with J.B.C. 256 (15) 7998-8005, 1981.
A. Measurement of inhibitory activity on binding of ^3 H-5α-[…] (^3 H-5α,-DHT) on rat prostate androgen receptor
(1) Preparation of cytosol from rat prostate
The rat was sacrificed 24 hours after castration, and the ventral lobe of prostate was removed, and was gently homogenized, on ice water bath, by using a Potter homogenizer in three-fold amount of 0.25M sucrose-TME buffer solution (50 mM tris-HCl (pH 7.4), 0.5 mM mercaptoethanol, and 0.1 mM EDTA-2 Na). The homogenate was filtrated through double gauze, and ultracentrifuged at 105000×g for 60 minutes, and the supernatant was used as androgen receptor.
(2) Measurement of ^3 H-5α-DHT specific binding on prostate cytoplasmic androgen receptor
To the cytosol obtained in (1), ^3 H-5α-DHT (47.8 Ci/mmol) was added, so that a final concentration is adjusted to 1 nM, and 0.25 M sucrose-TME buffer was added to adjust the final volume to 0.5 ml, and the reaction mixture was incubated for about 20 hours at 0° C. An ammonium sulfate solution dissolved in 0.25 M sucrose-TME buffer was mixed to be 35% saturation, and after standing for 90 minutes at 0° C., the mixture was centrifuged at 10000×g for 10 minutes at 4° C., and the precipitate was obtained.
This precipitate was suspended again in 0.8 ml of the above buffer solution, and furthermore in order to remove the free type ^3 H-5α-DHT, 0.2 ml of dextran-carbon powder suspension (4% activated carbon, 0.1% dextran T-70, and 0.1% gelatin dissolved in the above buffer solution) was added and mixed, and the mixture was let stand for 10 minutes at 0° C. At 4° C., in succession, the mixture was centrifuged at 3000×g for 10 minutes, and 0.5 ml of the supernatant was transferred into a vial, and 10 ml of aquasol-2 was added, and radioactivity was measured, and the total binding amount of ^3 H-5α-DHT on the prostate cytoplasma androgen receptor was determined. The nonspecific binding amount was similarly determined by adding a non-radioactive ligand (5α-DHT) to the reaction solution to a final concentration of 1 μM. The difference between the total binding amount and nonspecific binding amount was determined as the specific binding amount on the androgen receptor.
(3) Inhibitory activity of sample compounds on ^3 H-5α-DHT specific binding
The compounds obtained in Examples were incubated with ^3 H-5α-DHT at several concentrations same as in (2), and the specific binding amount of ^3 H-5α-DHT on the androgen receptor was determined. Comparing the obtained value with the value of (2), the IC50 value of the test compounds on ^3 H-5α-DHT specific binding was determined. The following compounds were used as the positive controls.

| IC50 | SMILES |
| --- | --- |
| < 5e-06 M | CCc1cccc(NS(=O)(=O)c2ccc(-c3cnn4c(O)ncnc34)cc2)c1 [Example 90, 8-[4-(3-ethylphenylaminosulfonyl)phenyl]-4-hydroxypyrazolo[1,5-a]-1,3,5-triazine] |
| 1.5e-06 M | Cc1ccc(Sc2ccc(-c3cnn4c(O)ncnc34)cc2C)cc1 [Example 84, 4-Hydroxy-8-[3-methyl-4-(4-methylphenylthio)phenyl]pyrazolo[1,5-a]-1,3,5-triazine] |
| < 5e-06 M | CC(C)c1ccc(NS(=O)(=O)c2ccc(-c3cnn4c(O)ncnc34)cc2)cc1 [Example 92, 4-Hydroxy-8-[4-(4-isopropylphenylaminosulfonyl)phenyl]pyrazolo[1,5-a]-1,3,5-triazine] |
| 6e-07 M | N#Cc1ccc(NS(=O)(=O)c2ccc(-c3cnn4c(O)ncnc34)cc2)cc1 [Example 94, 8-[4-(4-cyanophenylaminosulfonyl)phenyl]-4-hydroxypyrazolo[1,5-a]-1,3,5-triazine] |
| 3.6e-07 M | O=S(=O)(NC1CCCCC1)c1ccc(-c2cnn3c(O)ncnc23)cc1 [Example 98, 8-(4-cyclohexylaminosulfonylphenyl)-4-hydroxypyrazolo[1,5-a]-1,3,5-triazine] |
| 1.2e-06 M | O=S(=O)(Nc1ccc(Cl)cc1)c1ccc(-c2cnn3c(O)ncnc23)cc1 [Example 95, 8-[4-(4-chlorophenylaminosulfonyl)phenyl]-4-hydroxypyrazolo[1,5-a]-l,3,5-triazine] |
| < 5e-06 M | CCc1ccccc1NS(=O)(=O)c1ccc(-c2cnn3c(O)ncnc23)cc1 [Example 91, 8-[4-(2-ethylphenylaminosulfonyl)phenyl]-4-hydroxypoyrazolo[1,5-a]-1,3,5-triazine] |
| 5e-06 M | O=S(=O)(Nc1cccnc1)c1ccc(-c2cnn3c(O)ncnc23)cc1 [Example 97, 4-Hydroxy-8-[4-(3-pyridylaminosulfonyl)phenyl]pyrazolo[1,5-a]-1,3,5-triazine] |
| 1.1e-07 M | Cc1cc(-c2cnn3c(O)ncnc23)ccc1SCc1ccccc1 [Example 79, 8-(4-Benzylthio-3-methylphenyl)-4-hydroxypyrazolo[1,5-a]-1,3,5-triazine] |
